According to US20240376094A2, “SELECTIVE BCL-XL PROTAC COMPOUNDS AND METHODS OF USE” (Les Laboratoires Servier, priority 2021, published 2024):

Key:
Type in all cases: cell-based
MOLT-4 cells = assay: MOLT-4 cell viability, CTG assay; settings: Homo sapiens, MOLT-4, 48 h
Summary of the method: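 Cells grown in RPMI 1640 with 10% FBS at 37° C, 5% CO2, then exposed to compounds for 48 h (11-point 5-fold dilution, triplicates). ATP measured by CellTiter-Glo luminescence; IC50 from four-parameter fit versus control, mean of ≥2 independent experiments.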

Bcl-xL = target: T1, Bcl-xL (Homo sapiens, UniProt Q07817); assay: HCT116 Bcl-xL degradation, capillary-based immunoassay (WES); settings: HCT116, 24 h, 9-point serial dilution
T1 construct: Measured levels of Bcl-xL protein of HCT116 cells treated with the tested compounds; host or cells: HCT116
Summary of the method: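 HCT116 cells treated 24 h with compound at 10/100 nM and/or 9-point dilution (quadruplicates), then lysed. Bcl-xL measured by capillary WES immunoassay, normalized to cofilin and expressed as % of untreated cells. DC50 from four-parameter curve fit.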

[1] = test system: EBC-1 lung cancer cell line; assay: EBC-1 cell proliferation, CellTiter-Glo assay; settings: Homo sapiens, 120 h; Ebc-1 cell viability, CTG assay, 5 days of treatment; read-out: CTG 5 day Ebc1 GI50
Summary of the method: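 EBC-1 cells seeded at 1000 per well overnight, then exposed to 10-point dilutions (0.508 nM–10 μM final) for 5 days at 37 °C, in triplicate. ATP luminescence by CellTiter-Glo, normalised to untreated wells; GI50 from four-parameter logistic fit, runs valid only with at least one doubling.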

HiBiT-tagged BCL-xL = target: T2, HiBiT-tagged BCL-xL (Homo sapiens, UniProt Q07817); assay: NCI-H1650 BCL-xL protein levels, Nano-Glo HiBiT Lytic Detection; settings: NCI-H1650 expressing HiBiT-tagged BCL-xL, overnight incubation, read-out: Bcl-xl HIBIT NCIH1650 DC50
T2 construct: expressed in transfected cells; host or cells: NCI-H1650 (ATCC No. CRL-5883), engineered HiBiT cell line
Summary of the method: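 NCI-H1650 cells expressing HiBiT-tagged BCL-xL (5000/well) were treated overnight at 37° C with 10 concentrations, final 0.508 nM-10 μM, in triplicate. Remaining BCL-xL measured by Nano-Glo HiBiT lytic luminescence, normalized to untreated cells; 50% values by four-parameter logistic fit.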

T1 sequence (Q07817 whole entry): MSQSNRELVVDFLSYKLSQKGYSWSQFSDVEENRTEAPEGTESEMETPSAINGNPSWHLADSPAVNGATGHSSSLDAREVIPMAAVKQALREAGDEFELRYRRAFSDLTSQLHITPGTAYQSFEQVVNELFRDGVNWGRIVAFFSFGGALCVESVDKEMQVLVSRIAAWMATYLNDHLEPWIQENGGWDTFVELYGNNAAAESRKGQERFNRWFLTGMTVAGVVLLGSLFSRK
T2 sequence (Q07817 whole entry): as above

Row | Compound | IC50 (MOLT-4 cells) [nM] | DC50 (Bcl-xL) [nM] | GI50 [1] [nM] | DC50 (HiBiT-tagged BCL-xL) [nM]
1 | Cc1ncsc1-c1ccc([C@H](C)NC(=O)[C@@H]2C[C@@H](O)CN2C(=O)[C@@H](NC(=O)CCCCNC(=O)c2nc(N3CCCc4c3nnc(Nc3nc5ccccc5s3)c4C)ccc2-c2cnn(CC34CC5(C)CC(C)(C3)CC(OCCN3CCCC3)(C5)C4)c2C)C(C)(C)C)cc1 [Example 122, 6-[3-(1,3-benzothiazol-2-ylamino)-4-methyl-6,7-dihydro-5H-pyrido[2,3-c]pyridazin-8-yl]-3-[1-[[3,5-dimethyl-7-(2-pyrrolidin-1-ylethoxy)-1-adamantyl]methyl]-5-methyl-pyrazol-4-yl]-N-[5-[[(1S)-1-[(2S,4R)-4-hydroxy-2-[[(1S)-1-[4-(4-methylthiazol-5-yl)phenyl]ethyl]carbamoyl]pyrrolidine-1-carbonyl]-2,2-dimethyl-propyl]amino]-5-oxo-pentyl]pyridine-2-carboxamide] | 4.6 | > 316 | 46 | > 1670
2 | Cc1ncsc1-c1ccc([C@H](C)NC(=O)[C@@H]2C[C@@H](O)CN2C(=O)[C@@H](NC(=O)COCCCCCCCCCCCCCN(C)CCOC23CC4(C)CC(C)(CC(Cn5ncc(-c6ccc(N7CCCc8c7nnc(Nc7nc9ccccc9s7)c8C)nc6C(=O)O)c5C)(C4)C2)C3)C(C)(C)C)cc1 [Example 111, 6-[3-(1,3-benzothiazol-2-ylamino)-4-methyl-6,7-dihydro-5H-pyrido[2,3-c]pyridazin-8-yl]-3-[1-[[3-[2-[13-[2-[[(1S)-1-[(2S,4R)-4-hydroxy-2-[[(1S)-1-[4-(4-methylthiazol-5-yl)phenyl]ethyl]carbamoyl]pyrrolidine-1-carbonyl]-2,2-dimethyl-propyl]amino]-2-oxo-ethoxy]tridecyl-methyl-amino]ethoxy]-5,7-dimethyl-1-adamantyl]methyl]-5-methyl-pyrazol-4-yl]pyridine-2-carboxylic acid] | 2.62 | 0.4 | 41 | 0.5
3 | Cc1cc(N(CCCCN(C)C(=O)CCCCCCCCCSC(C)(C)[C@H](NC(=O)C2(F)CC2)C(=O)N2C[C@H](O)C[C@H]2C(=O)NCc2ccc(-c3scnc3C)cc2)c2ccc(-c3cnn(CC45CC6(C)CC(C)(C4)CC(OCCN(C)C)(C6)C5)c3C)c(C(=O)O)n2)nnc1Nc1nc2ccccc2s1 [Example 126, 6-[[6-(1,3-benzothiazol-2-ylamino)-5-methyl-pyridazin-3-yl]-[4-[10-[(2R)-2-[(1-fluorocyclopropanecarbonyl)amino]-3-[(2S,4R)-4-hydroxy-2-[[4-(4-methylthiazol-5-yl)phenyl]methylcarbamoyl]pyrrolidin-1-yl]-1,1-dimethyl-3-oxo-propyl]sulfanyldecanoyl-methyl-amino]butyl]amino]-3-[1-[[3-[2-(dimethylamino)ethoxy]-5,7-dimethyl-1-adamantyl]methyl]-5-methyl-pyrazol-4-yl]pyridine-2-carboxylic acid] | 240 | > 316 | 1430 | > 1670
4 | Cc1ncsc1-c1ccc([C@H](C)NC(=O)[C@@H]2C[C@@H](O)CN2C(=O)[C@@H](NC(=O)CCCCCCCCCN2CCN(CC#Cc3ccc(OCCCc4sc(N5CCCc6c5nnc(Nc5nc7ccccc7s5)c6C)nc4C(=O)O)c(F)c3)CC2)C(C)(C)C)cc1 [Example 134, 2-[3-(1,3-benzothiazol-2-ylamino)-4-methyl-6,7-dihydro-5H-pyrido[2,3-c]pyridazin-8-yl]-5-[3-[2-fluoro-4-[3-[4-[10-[[(1S)-1-[(2S,4R)-4-hydroxy-2-[[(1S)-1-[4-(4-methylthiazol-5-yl)phenyl]ethyl]carbamoyl]pyrrolidine-1-carbonyl]-2,2-dimethyl-propyl]amino]-10-oxo-decyl]piperazin-1-yl]prop-1-ynyl]phenoxy]propyl]thiazole-4-carboxylic acid] | 7.19 | 0.564 | 2 | 1
5 | Cc1cc(N(CCCCN(C)C(=O)CCCCCCCCCCCC(=O)N[C@H](C(=O)N2C[C@H](O)C[C@H]2C(=O)N[C@@H](C)c2ccc(-c3scnc3C)cc2)C(C)(C)C)c2ccc(-c3cnn(C[C@]45C[C@]6(C)C[C@](C)(C4)C[C@@](OCCN(C)C)(C6)C5)c3C)c(C(=O)O)n2)nnc1Nc1nc2ccccc2s1 [Example 121, 6-[[6-(1,3-benzothiazol-2-ylamino)-5-methyl-pyridazin-3-yl]-[4-[[13-[[(1S)-1-[(2S,4R)-4-hydroxy-2-[[(1S)-1-[4-(4-methylthiazol-5-yl)phenyl]ethyl]carbamoyl]pyrrolidine-1-carbonyl]-2,2-dimethyl-propyl]amino]-13-oxo-tridecanoyl]-methyl-amino]butyl]amino]-3-[1-[[3-[2-(dimethylamino)ethoxy]-5,7-dimethyl-1-adamantyl]methyl]-5-methyl-pyrazol-4-yl]pyridine-2-carboxylic acid] | 9.99 | 2.57 | 190 | 1
6 | CNC(=O)c1nc(N2CCCc3c2nnc(Nc2nc4ccccc4s2)c3C)ccc1-c1cnn(CC23CC4(C)CC(C)(C2)CC(OCCN(C)CCCCCCCCCCCCCC(=O)N[C@H](C(=O)N2C[C@H](O)C[C@H]2C(=O)N[C@@H](C)c2ccc(-c5scnc5C)cc2)C(C)(C)C)(C4)C3)c1C [Example 156, 6-[3-(1,3-benzothiazol-2-ylamino)-4-methyl-6,7-dihydro-5H-pyrido[2,3-c]pyridazin-8-yl]-3-[1-[[3-[2-[[14-[[(1S)-1-[(2S,4R)-4-hydroxy-2-[[(1S)-1-[4-(4-methylthiazol-5-yl)phenyl]ethyl]carbamoyl]pyrrolidine-1-carbonyl]-2,2-dimethyl-propyl]amino]-14-oxo-tetradecyl]-methyl-amino]ethoxy]-5,7-dimethyl-1-adamantyl]methyl]-5-methyl-pyrazol-4-yl]-N-methyl-pyridine-2-carboxamide] | 6.48 | 14.5 | 27 | 228
7 | Cc1ncsc1-c1ccc(CNC(=O)[C@@H]2C[C@@H](O)CN2C(=O)[C@@H](NC(=O)C2(F)CC2)C(C)(C)SCCCCCCCCCCCCCN(C)CCOC23CC4(C)CC(C)(CC(Cn5ncc(-c6ccc(N7CCCc8c7nnc(Nc7nc9ccccc9s7)c8C)nc6C(=O)O)c5C)(C4)C2)C3)cc1 [Example 118, 6-[3-(1,3-benzothiazol-2-ylamino)-4-methyl-6,7-dihydro-5H-pyrido[2,3-c]pyridazin-8-yl]-3-[1-[[3-[2-[13-[(2R)-2-[(1-fluorocyclopropanecarbonyl)amino]-3-[(2S,4R)-4-hydroxy-2-[[4-(4-methylthiazol-5-yl)phenyl]methylcarbamoyl]pyrrolidin-1-yl]-1,1-dimethyl-3-oxo-propyl]sulfanyltridecyl-methyl-amino]ethoxy]-5,7-dimethyl-1-adamantyl]methyl]-5-methyl-pyrazol-4-yl]pyridine-2-carboxylic acid] | 7.83 | > 316 | 84 | > 1670
8 | Cc1ncsc1-c1ccc([C@H](C)NC(=O)[C@@H]2C[C@@H](O)CN2C(=O)[C@@H](NC(=O)C2CCN(C(=O)CCCCCCCN(C)CCOC34CC5(C)CC(C)(CC(Cn6ncc(-c7ccc(N8CCCc9c8nnc(Nc8nc%10ccccc%10s8)c9C)nc7C(=O)O)c6C)(C5)C3)C4)CC2)C(C)(C)C)cc1 [Example 81, 6-[3-(1,3-benzothiazol-2-ylamino)-4-methyl-6,7-dihydro-5H-pyrido[2,3-c]pyridazin-8-yl]-3-[1-[[3-[2-[[8-[4-[[(1S)-1-[(2S,4R)-4-hydroxy-2-[[(1S)-1-[4-(4-methylthiazol-5-yl)phenyl]ethyl]carbamoyl]pyrrolidine-1-carbonyl]-2,2-dimethyl-propyl]carbamoyl]-1-piperidyl]-8-oxo-octyl]-methyl-amino]ethoxy]-5,7-dimethyl-1-adamantyl]methyl]-5-methyl-pyrazol-4-yl]pyridine-2-carboxylic acid] | 15.1 | > 316 | 203 | > 1670
9 | Cc1ncsc1-c1ccc(CNC(=O)[C@@H]2C[C@@H](O)CN2C(=O)[C@@H](NC(=O)C2(F)CC2)C(C)(C)C)c(OCCCCCCCCCCCCCCCCN(C)CCOC23CC4(C)CC(C)(CC(Cn5ncc(-c6ccc(N7CCCc8c7nnc(Nc7nc9ccccc9s7)c8C)nc6C(=O)O)c5C)(C4)C2)C3)c1 [Example 77, 6-[3-(1,3-benzothiazol-2-ylamino)-4-methyl-6,7-dihydro-5H-pyrido[2,3-c]pyridazin-8-yl]-3-[1-[[3-[2-[16-[2-[[[(2S,4R)-1-[(2S)-2-[(1-fluorocyclopropanecarbonyl)amino]-3,3-dimethyl-butanoyl]-4-hydroxy-pyrrolidine-2-carbonyl]amino]methyl]-5-(4-methylthiazol-5-yl)phenoxy]hexadecyl-methyl-amino]ethoxy]-5,7-dimethyl-1-adamantyl]methyl]-5-methyl-pyrazol-4-yl]pyridine-2-carboxylic acid] | 4.54 | > 316 | 167 | > 1670
